Test results taken from patent publication US4791113A, “Mitomycin derivatives as antileukemia agents” (Kyowa Hakko Kogyo Kabushiki Kaisha, priority 1986, dated 1988).
Values after ≈ are worked out from the molar mass of the structure shown.

How the values were obtained:
in vivo [1] = conditions: mouse, ip, single abdominal administration, ddy mice, 14 days, Behrens-Korber's method
Text: (§1) In this table, C.I. denotes chemotherapeutic index, calculated as C.I.=(LD50)/(ED50), wherein LD50 denotes the value of acute toxicity, and ED50 denotes the dose of a sample which is capable of reducing the volume of Sarcoma 180 solid tumour to 50% of the corresponding volume of the solid tumour of untreated group.
(§2) The test compound was abdominally administered once to ddy mice, each group consisting of 5 animals.

Sarcoma 180 solid tumour = format: in vivo, ddy mouse; conditions: C.I.=(LD50)/(ED50), ED50 = dose at T/C=0.5, i.v. (tail vein), 7 days
Text: as §1, §2
(§3) 5×10^6 cells of Sarcoma 180 solid tumour were abdominally implanted into a ddy mouse. 7 days after this, the cells were collected from the ascites fluid. The cells were washed once with physiological saline under sterile conditions and suspended in physiological saline to obtain a cell suspension containing 5×10^7 cells/ml of which 0.1 ml was implanted into a ddy male mouse (body weight 20±2 g) under the skin of the right armpit. The test compound was dissolved in physiological saline or the same solution containing Tween 80. 24 hours after implantation of the tumour cells, 0.1-0.2 ml of the solution containing the test compound was administered to the tail vein of each animal in the test group consisting of 5 animals. 7 days after the implantation, the major axis (a) and minor axis (b) of the tumour were measured to calculate the volume of the tumour as "a"×"b^2 "/2. The antitumour effect was indicated by T/C which is the ratio of the tumour volume in the test animals to the corresponding volume of the control (untreated) animals.
(§4) T/C ratios and the dose were respectively plotted on the ordinate using an arithmetic scale and on the abscissa using a logarithmic scale, the relationship between the dosage and the T/C ratio being converted to a straight line by the least squares method. From the straight tropic line thus-obtained, the dosage corresponding to a T/C=0.5 viz. ED50 was determined.

Hela S3 cultured cells = assay: Effects upon Hela S3 cultured cells; format: cell-based; conditions: Homo sapiens, HeLa S3, 72 h
Method: Table 3 indicates the effects of typical Compounds (I) against Hela S3 culture cells. In this table, IC50 denotes the concentration of the test compound capable of reducing the number of cells to 50% the number of untreated cells.
Cultured cells of Hela S3 were added to a MEM medium containing 10% (V/V) of bovine fetal serum and […] of glutamine to obtain a cell suspension of 3×10^4 cells/ml. The cell suspension was poured into each well (1 ml/well) of a 24 well-multiplate for culturing at 37° C. in an incubator containing carbon dioxide (5%) and air (95%). After 24 hours, samples were dissolved or suspended in PBS, ethanol or dimethylsulfoxide and added to the medium at different concentrations, followed by culturing at 37° C. for 72 hours in the same incubator. An aspirator was used to collect the medium from each well. The surface of each medium was washed by adding PBS (1 ml) gently, and then PBS was sucked out. PBS containing trypsin (0.05%) and EDTA (0.02%) was poured into each well. After pipetting, the number of cells in each suspension was counted by the use of a microcell counter (commercial product of Toa Iyo Denshi K.K., Japan). By reference to a curve showing the concentration vs. the number of cells, the IC50 (concentration of sample capable of reducing the number of cells to 50% of the number of control untreated cells) was measured.

in vivo [2] = assay: in vivo; parameters: species or system mice (ddy strain); conditions: mouse, ip, ratio of dose reducing peripheral leucocytes to 4000 (per mm^3; i.p., 4 days) to ED50 (Sarcoma 180), read-out: (WBC4000)/(ED50)
Text: as §1, §3, §4
Sarcoma 180 solid tumour cells (5×10^6) were subcutaneously implanted under the skin of the right armpit of each mouse (body weight 20±2 g) of a group consisting of 5 male mice (ddy strain). 24 hours after this, a test compound was intraperitoneally administered to each animal. 4 days later, blood (0.02 ml) was collected from the suborbital plexus vein of each tumour-carrying animal. The collected sample of blood was dispersed in 9.98 ml of Cellkit Seven solution. One drop of saponin solution was added to the sample to dissolve erythrocytes and then a microcell counter was used to measure the number of leucocytes. On graph paper, the number of leucocytes was plotted on the ordinate using an arithmetic scale, and the dosage was plotted on the abscissa using a logarithmic scale to show the relationship of the dosage to the number of peripheral leucocytes, from which the value of WBC4000 viz. a value capable of giving 4000 peripheral leucocytes per mm^3 (about half of the corresponding value in normal mice) was obtained.

With `COc1c(N=O)c(C)c(OC)c2c1[C@@H](COC(N)=O)[C@@]1(OC)[C@H]3N[C@H]3CN21` [Example 8, [1aS-(1aα, 8β, 8aα, 8bα)]-8-{[(aminocarbonyl)oxy]methyl}-1,1a,2,8,8a,8b-hexahydro-5-methyl-6-nitroso-4,7,8a-trimethoxy-azirino [2',3':3,4]pyrrolo[1,2-a]indole] the LD50 at 336 h (in vivo [1]) was 100 mg/kg, the “C.I. (chemotherapeutic index)” value (Sarcoma 180 solid tumour) was 2.1 and the IC50 (Hela S3 cultured cells) was 0.2 µg/mL (≈ 0.529 µM). For the same compound, the selectivity ratio (in vivo [2]) was 1.1.
